We go through 33 compounds from patent US9580390B2, “Indazole compounds as kinase inhibitors and method of treating cancer with same” (University Health Network, priority 2011, dated 2017).

Where only a bound is given, the exact number is not on record here.

The test system of this assay is colon cancer cells (HCT116). Briefly: Cancer cell line growth inhibition (SRB assay). Format: cell-based. The note with it: Homo sapiens, HCT-116; HCT116 colon cancer cells, SRB assay; read-out: Cancer Cell Line GI50 Range HCT116. In general terms: In SRB staining, fixed cells bind dye roughly in proportion to their protein.
Usually GI50 stands for the concentration at which growth is held to half of that of the control. As to `COc1cc(-c2n[nH]c3ccc(C(=O)NC(c4ccccc4)C4CC4)cc23)ccc1OC1CCNCC1` (stereo not drawn) [Example A13, N-(cyclopropyl(phenyl)methyl)-3-(3-methoxy-4-(piperidin-4-yloxy)phenyl)-1H-indazole-5-carboxamide], the GI50 fell in the range of 0.1 to 0.5 µM.
The same measure for `O=C(Nc1ccc2[nH]nc(-c3ccc(N4CCOCC4)cc3)c2c1)C(c1ccsc1)N1CCCCC1` (stereo not drawn) [Example A32, N-(3-(4-morpholinophenyl)-1H-indazol-5-yl)-2-(piperidin-1-yl)-2-(thiophen-3-yl)acetamide]: below 0.1 µM; for `CN(c1ccc(-c2n[nH]c3ccc(NC(=O)C(c4ccsc4)N4CCCC4)cc23)cc1)C1CCOCC1` (stereo not drawn) [Example A78, N-(3-(4-(methyl(tetrahydro-2H-pyran-4-yl)amino)phenyl)-1H-indazol-5-yl)-2-(pyrrolidin-1-yl)-2-(thiophen-3-yl)acetamide]: below 0.1 µM; for `O=C(Nc1ccc2[nH]nc(-c3ccc(CN4CCOCC4)cc3)c2c1)C(c1ccsc1)N1CCCC1` (stereo not drawn) [Example A3, N-(3-(4-(morpholinomethyl)phenyl)-1H-indazol-5-yl)-2-(pyrrolidin-1-yl)-2-(thiophen-3-yl)acetamide]: 0.1 to 0.5 µM.
Then `COC(C(=O)Nc1ccc2[nH]nc(-c3ccc(OC4CCN(C)CC4)cc3)c2c1)c1ccsc1` (stereo not drawn) [Example A37, 2-methoxy-N-(3-(4-((1-methylpiperidin-4-yl)oxy)phenyl)-1H-indazol-5-yl)-2-(thiophen-3-yl)acetamide], with below 0.1 µM.
Then `Cc1cc(C)c(NC(=O)Nc2ccc3[nH]nc(-c4ccc(OC5CCN(C)CC5)cc4)c3c2)c(Cl)c1` [Example A77, 1-(2-chloro-4,6-dimethylphenyl)-3-(3-(4-((1-methylpiperidin-4-yl)oxy)phenyl)-1H-indazol-5-yl)urea], with 0.1 to 0.5 µM.
Take `O=C(Nc1ccc2[nH]nc(-c3ccc(NC4CCCCC4)cc3)c2c1)C(c1ccsc1)N1CCCC1` (stereo not drawn) [Example A68, N-(3-(4-(cyclohexylamino)phenyl)-1H-indazol-5-yl)-2-(pyrrolidin-1-yl)-2-(thiophen-3-yl)acetamide]: the GI50 was above 0.5 µM.
As to `CN(C)CCCOc1ccc(-c2n[nH]c3ccc(NC(=O)C(c4ccsc4)N4CCCC4)cc23)cc1` (stereo not drawn) [Example A43, N-(3-(4-(3-(dimethylamino)propoxy)phenyl)-1H-indazol-5-yl)-2-(pyrrolidin-1-yl)-2-(thiophen-3-yl)acetamide], the GI50 was below 0.1 µM.
Then `C[C@@H](NC(=O)c1ccc2[nH]nc(-c3ccc(N4CCOCC4)cc3)c2c1)C1CCCCC1` [Example A48, (R)-N-(1-cyclohexylethyl)-3-(4-morpholinophenyl)-1H-indazole-5-carboxamide], with above 0.5 µM; and `CN1CCC(Oc2ccc(-c3n[nH]c4ccc(NC(=O)C(c5ccsc5)N5CCCCC5)cc34)cc2)CC1` (stereo not drawn) [Example A31, N-(3-(4-((1-methylpiperidin-4-yl)oxy)phenyl)-1H-indazol-5-yl)-2-(piperidin-1-yl)-2-(thiophen-3-yl)acetamide], with below 0.1 µM.
Then `CN1CCC(Oc2ccc(-c3n[nH]c4ccc(NC(=O)C(c5ccsc5)C5CCCC5)cc34)cc2)CC1` (stereo not drawn) [Example A36, 2-cyclopentyl-N-(3-(4-((1-methylpiperidin-4-yl)oxy)phenyl)-1H-indazol-5-yl)-2-(thiophen-3-yl)acetamide], with below 0.1 µM.
The same measure for `C[C@@H](NC(=O)c1ccc2[nH]nc(-c3ccc(OC4CCN(C)CC4)cc3)c2c1)c1cccs1` [Example A55, (R)-3-(4-((1-methylpiperidin-4-yl)oxy)phenyl)-N-(1-(thiophen-2-yl)ethyl)-1H-indazole-5-carboxamide]: below 0.1 µM.
For the compound `C[C@H]1CCCN1[C@H](C(=O)Nc1ccc2[nH]nc(-c3ccc(N4CCOCC4)cc3)c2c1)c1ccsc1` [Example A47, (S)-2-((S)-2-methylpyrrolidin-1-yl)-N-(3-(4-morpholinophenyl)-1H-indazol-5-yl)-2-(thiophen-3-yl)acetamide], the concentration for 50% growth inhibition (GI50) was 0.1 to 0.5 µM.
With `CN1CCC(Oc2ccc(-c3n[nH]c4ccc(C(=O)NCC(c5ccsc5)N5CCOCC5)cc34)cc2)CC1` (stereo not drawn) [Example A75, 3-(4-((1-methylpiperidin-4-yl)oxy)phenyl)-N-(2-morpholino-2-(thiophen-3-yl)ethyl)-1H-indazole-5-carboxamide], the GI50 is 0.1 to 0.5 µM.
Then `CN(C)CCOc1ccc(-c2n[nH]c3ccc(NC(=O)C(c4ccsc4)N4CCCC4)cc23)cc1` (stereo not drawn) [Example A5, N-(3-(4-(2-(dimethylamino)ethoxy)phenyl)-1H-indazol-5-yl)-2-(pyrrolidin-1-yl)-2-(thiophen-3-yl)acetamide], with below 0.1 µM; and `COc1cc(-c2n[nH]c3ccc(NC(=O)C(c4ccsc4)N4CCCC4)cc23)ccc1OC1CCNCC1` (stereo not drawn) [Example A8, N-(3-(3-methoxy-4-(piperidin-4-yloxy)phenyl)-1H-indazol-5-yl)-2-(pyrrolidin-1-yl)-2-(thiophen-3-yl)acetamide], with below 0.1 µM.
As to `CN1CCC(Oc2ccc(-c3n[nH]c4ccc(C(=O)NCC(C)(C)N5CCOCC5)cc34)cc2)CC1` [Example A74, N-(2-methyl-2-morpholinopropyl)-3-(4-((1-methylpiperidin-4-yl)oxy)phenyl)-1H-indazole-5-carboxamide], the GI50 is above 0.5 µM.
Then `CN1CCC(Oc2ccc(-c3n[nH]c4ccc(NC(=O)C5c6ccccc6CCN5C)cc34)cc2)CC1` (stereo not drawn) [Example A39, 2-methyl-N-(3-(4-((1-methylpiperidin-4-yl)oxy)phenyl)-1H -indazol-5-yl)-1,2,3,4-tetrahydroisoquinoline-1-carboxamide], with below 0.1 µM.
Then `O=C(Nc1ccc2[nH]nc(-c3ccc(OC4CCNCC4)cc3)c2c1)C(c1ccsc1)N1CCCC1` (stereo not drawn) [Example A28, N-(3-(4-(piperidin-4-yloxy)phenyl)-1H-indazol-5-yl)-2-(pyrrolidin-1-yl)-2-(thiophen-3-yl)acetamide], with below 0.1 µM; and `CC[C@@H](NC(=O)c1ccc2[nH]nc(-c3ccc(N4CCOCC4)cc3)c2c1)c1cccs1` [Example A58, (R)-3-(4-morpholinophenyl)-N-(1-(thiophen-2-yl)propyl)-1H-indazole-5-carboxamide], with 0.1 to 0.5 µM.
For `COc1cc(-c2n[nH]c3ccc(C(=O)NC(c4ccccc4)C4CC4)cc23)ccc1OC1CCN(C)CC1` (stereo not drawn) [Example A19, N-(cyclopropyl(phenyl)methyl)-3-(3-methoxy-4-((1-methylpiperidin-4-yl)oxy)phenyl)-1H-indazole-5-carboxamide], the GI50 was in the range of 0.1 to 0.5 µM.
Then `CN1CCC(Oc2ccc(-c3n[nH]c4ccc(C(=O)N[C@@H]5CCCc6ccccc65)cc34)cc2)CC1` [Example A26, (R)-3-(4-((1-methylpiperidin-4-yl)oxy)phenyl)-N-(1,2,3,4-tetrahydronaphthalen-1-yl)-1H-indazole-5-carboxamide], with 0.1 to 0.5 µM; and `COc1cc(-c2n[nH]c3ccc(NC(=O)C(c4ccsc4)N4CCCC4)cc23)ccc1N1CCN(C)CC1` (stereo not drawn) [Example A10, N-(3-(3-methoxy-4-(4-methylpiperazin-1-yl)phenyl)-1H-indazol-5-yl)-2-(pyrrolidin-1-yl)-2-(thiophen-3-yl)acetamide], with 0.1 to 0.5 µM; and `CN1CCC(Oc2ccc(-c3n[nH]c4ccc(NC(=O)C(c5ccsc5)N5CCCC5)cc34)cc2N)CC1` (stereo not drawn) [Example A80, N-(3-(3-amino-4-((1-methylpiperidin-4-yl)oxy)phenyl)-1H-indazol-5-yl)-2-(pyrrolidin-1-yl)-2-(thiophen-3-yl)acetamide], with below 0.1 µM.
The same measure for `O=C(N[C@@H](c1ccccc1)C1CC1)c1ccc2[nH]nc(-c3ccc(N4CCOCC4)cc3)c2c1` [Example A51, (R)-N-(cyclopropyl(phenyl)methyl)-3-(4-morpholinophenyl)-1H-indazole-5-carboxamide]: 0.1 to 0.5 µM; for `O=C(Nc1ccc2[nH]nc(-c3ccc(N4CCOCC4)cc3)c2c1)C1CCCc2ccccc21` (stereo not drawn) [Example A22, N-(3-(4-morpholinophenyl)-1H-indazol-5-yl)-1,2,3,4-tetrahydronaphthalene-1-carboxamide]: 0.1 to 0.5 µM.
The same measure for `COc1cc(-c2n[nH]c3ccc(NC(=O)C(c4ccsc4)N4CCCC4)cc23)ccc1OC1CCN(C)CC1` (stereo not drawn) [Example A21, N-(3-(3-methoxy-4-((1-methylpiperidin-4-yl)oxy)phenyl)-1H -indazol-5-yl)-2-(pyrrolidin-1-yl)-2-(thiophen-3-yl)acetamide]: below 0.1 µM; for `CN1CCC(Oc2ccc(-c3n[nH]c4ccc(NC(=O)N5CCCc6ccccc65)cc34)cc2)CC1` [Example A73, N-(3-(4-((1-methylpiperidin-4-yl)oxy)phenyl)-1H-indazol-5-yl)-3,4-dihydroquinoline-1(2H)-carboxamide]: above 0.5 µM.
With `O=C(Nc1ccc2[nH]nc(-c3ccc(NC4CCCC4)cc3)c2c1)C(c1ccsc1)N1CCCC1` (stereo not drawn) [Example A70, N-(3-(4-(cyclopentylamino)phenyl)-1H-indazol-5-yl)-2-(pyrrolidin-1-yl)-2-(thiophen-3-yl)acetamide], the GI50 fell in the range of 0.1 to 0.5 µM.
Then `C[C@H]1CCCN1[C@H](C(=O)Nc1ccc2[nH]nc(-c3ccc(N4CCOCC4)cc3)c2c1)c1cccs1` [Example A79, (R)-2-((S)-2-methylpyrrolidin-1-yl)-N-(3-(4-morpholinophenyl)-1H-indazol-5-yl)-2-(thiophen-2-yl)acetamide], with below 0.1 µM; and `C[C@H](NC(=O)c1ccc2[nH]nc(-c3ccc(OC4CCN(C)CC4)cc3)c2c1)C1CCCCC1` [Example A38, (S)-N-(1-cyclohexylethyl)-3-(4-((1-methylpiperidin-4-yl)oxy)phenyl)-1H-indazole-5-carboxamide], with below 0.1 µM.
Then `CN1CCN(c2ccc(-c3n[nH]c4ccc(NC(=O)C5CCCc6ccccc65)cc34)cc2)CC1` (stereo not drawn) [Example A11, N-(3-(4-(4-methylpiperazin-1-yl)phenyl)-1H-indazol-5-yl)-1,2,3,4-tetrahydronaphthalene-1-carboxamide], with 0.1 to 0.5 µM; and `CC[C@@H](NC(=O)c1ccc2[nH]nc(-c3ccc(OC4CCN(C)CC4)cc3)c2c1)c1cccs1` [Example A63, (R)-3-(4-((1-methylpiperidin-4-yl)oxy)phenyl)-N-(1-(thiophen-2-yl)propyl)-1H-indazole-5-carboxamide], with below 0.1 µM.
